SMILES strings stand for the structures. Active and inactive are the calls of the source. The rule behind the calls is not given here.

The source of these data is PubChem BioAssay AID743476 (The Scripps Research Institute Molecular Screening Center, 2014).

In this experiment the test system is CCHF-vOTU. Nature of the experiment: PubChem AID 743476. The note with it: Recombinant CCHFV vOTU, PEP-AMC fluorescence cleavage, with PEP-AMC substrate, active compounds read high.

Regarding `CC1COCC(C)N1C1=C(Cl)C(=O)c2ccccc2C1=O` (stereo not drawn), the inhibition reads like this: (Assay 1, at 5.07 µM) 0.67% (inactive); (Assay 2, at 5.07 µM) 14% (inactive); (Assay 3, at 10.14 µM) 17.6% (inactive).

Take `O=C(O)CSc1cc(NS(=O)(=O)c2cccc([N+](=O)[O-])c2)c2ccccc2c1O`: the inhibition is, setting by setting: (Assay 1, at 2.44 µM) -7.65% (inactive); (Assay 2, at 2.44 µM) 5.22% (inactive); (Assay 3, at 4.88 µM) 13.1% (inactive).

As to `O=C(c1ccco1)[C@@H]1[C@@H]2C(=O)N(c3ccc(Br)cc3)C(=O)[C@@H]2C2c3ccccc3C=CN21` (stereo partly drawn), the inhibition is, setting by setting: (Assay 1, at 5.26 µM) -13.1% (inactive); (Assay 2, at 5.26 µM) 37.6%.

For `O=C1Cc2ccccc2C(=O)N1CCc1ccccc1`, the inhibition reads like this: (Assay 1, at 1.14 µM) 12.7% (inactive); (Assay 2, at 1.14 µM) 57.5%.

Take `COC1=C(N)C(=O)c2nc(C)ccc2C1=O`: the inhibition is 16.7% (inactive) (Assay 1, at 1.37 µM) and 50.9% (Assay 2, at 1.37 µM).

Consider `COc1ccc2noc3c2c1C(=O)c1ccccc1-3`, for which the inhibition was 16.5% (inactive) (Assay 1, at 3.08 µM); 15.2% (inactive) (Assay 2, at 3.08 µM); 64.3% (Assay 3, at 6.16 µM).

Take `Cc1ccc2c(c1C)-c1c(ccc(C)c1C)C(=O)C2=O`: the inhibition is, setting by setting: (Assay 1, at 7.79 µM) -37.1% (inactive); (Assay 2, at 7.79 µM) 18% (inactive); (Assay 3, at 15.58 µM) 38.4%.

As to `NS(=O)(=O)c1ccc(NC(=O)COC(=O)c2ccc([N+](=O)[O-])s2)cc1`, the inhibition (Assay 1, at 8.31 µM) is 70.6%; the inhibition (Assay 2, at 8.31 µM) was 24.6%; the inhibition (Assay 3, at 16.62 µM) was 23.1%.

`O=C1C=C(Nc2ccccc2)c2ccccc2C1=O`: the inhibition (Assay 1, at 6.87 µM) was 22.4% and the inhibition (Assay 2, at 6.87 µM) is 52.9%.

`O=C(/C=C/c1ccc(O)cc1)c1ccc(NC2=C(N3CCCCC3)C(=O)c3ccccc3C2=O)cc1`: the inhibition by setting is: (Assay 1, at 3.35 µM) 14.3% (inactive); (Assay 2, at 3.35 µM) 16.3% (inactive); (Assay 3, at 6.7 µM) 33.6%.

On to `CCn1nc(/C=C/c2ccccc2)nc2c(=O)n(C)c(=O)nc1-2`, for which the inhibition (Assay 1, at 0.28 µM) is 58.4% and the inhibition (Assay 2, at 0.28 µM) was 91.9%.

Consider `Cc1cnc(C2OCCO2)c2cccc(N)c12`, for which the inhibition by setting is: (Assay 1, at 2.56 µM) 16.2% (inactive); (Assay 2, at 2.56 µM) 0.6% (inactive); (Assay 3, at 5.12 µM) 1% (inactive).

`Cc1ccc(NC2=CC(=O)C(=O)c3ccccc32)cc1`: the inhibition is, setting by setting: (Assay 1, at 7.14 µM) 20%; (Assay 2, at 7.14 µM) 51.9%.

`O=C1OC(Nc2cc(Br)cc3cccnc23)c2ccccc21` (stereo not drawn): the inhibition is 21.7% (Assay 1, at 5.23 µM); 16.9% (inactive) (Assay 2, at 5.23 µM); 10.9% (inactive) (Assay 3, at 10.46 µM).

As to `COc1cc(NC(=O)COC(=O)c2ccc([N+](=O)[O-])s2)cc(OC)c1OC`, the inhibition reads like this: (Assay 1, at 6.6 µM) 7.4% (inactive); (Assay 2, at 6.6 µM) 4.53% (inactive); (Assay 3, at 13.2 µM) 11.9% (inactive).

In the case of `COc1cc(Br)c(C(=O)c2nccc3cc(OC)c(OC)cc23)cc1OC`, the inhibition runs as follows: (Assay 1, at 0.27 µM) 31.9%; (Assay 2, at 0.27 µM) 25.2%.

For the compound `O=C(NC1=CC(=O)c2ccccc2C1=O)c1ccccc1`, the inhibition (Assay 1, at 3.85 µM) is 5.25% (inactive); the inhibition (Assay 2, at 3.85 µM) is 9.67% (inactive); the inhibition (Assay 3, at 7.7 µM) is 16.4% (inactive).

`O=C(NC1=C(NC2CCS(=O)(=O)C2)C(=O)c2ccccc2C1=O)c1ccccc1` (stereo not drawn): the inhibition was 4.88% (inactive) (Assay 1, at 3.9 µM) and 22.6% (Assay 2, at 3.9 µM).

Turning to `CC1CCCC(NC(=O)COC(=O)c2ccc([N+](=O)[O-])s2)C1C` (stereo not drawn), the inhibition by setting is: (Assay 1, at 9.22 µM) 37.2%; (Assay 2, at 9.22 µM) 8.38% (inactive); (Assay 3, at 18.44 µM) 13.5% (inactive).

For the compound `COC(CNC(=O)c1ccc2c3c(onc13)-c1ccccc1C2=O)OC`, the inhibition (Assay 1, at 3.49 µM) is 16.6% (inactive); the inhibition (Assay 2, at 3.49 µM) is 12.4% (inactive); the inhibition (Assay 3, at 6.98 µM) was 35.5%.

With `CCOC(=O)C1=C(COC(=O)c2ccc([N+](=O)[O-])s2)NC(=O)NC1C` (stereo not drawn), the inhibition (Assay 1, at 7.84 µM) was 5.42% (inactive); the inhibition (Assay 2, at 7.84 µM) is 9.9% (inactive); the inhibition (Assay 3, at 15.68 µM) is 6% (inactive).

On to `O=S(=O)(Nc1cc2nc3ccccc3nc2n1Cc1ccccc1)c1ccc(Cl)cc1`, for which the inhibition runs as follows: (Assay 1, at 2.57 µM) 72.3%; (Assay 2, at 2.57 µM) -112% (inactive); (Assay 3, at 5.14 µM) 47.9% (inactive).
